Measured values published in US20230085307A1, “PYRIDAZINONE COMPOUND AND HERBICIDE” (NISSAN CHEMICAL CORPORATION, priority 2019, published 2023).

Key:
late watergrass = assay: Test Example 1: herbicidal activity, application before weed generation under submerged conditions (Table 16, symbol A); type: in vivo, late watergrass (Echinochloa oryzicola); settings: amount of applied herbicide 320 g/ha
Procedure, shortened: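 Emulsion formulation, water-diluted to set dose, was put onto the flooded surface (4 cm depth, alluvial soil) the same day weeds were sown and 2.5-leaf rice transplanted. After 3 weeks at 25-30 °C under glass, each species was rated 0 (≤5% kill) to 5 (≥90% kill).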

Japanese bulrush = assay: Test Example 2: herbicidal activity, application during weed generation under submerged conditions (Table 17, symbol B); type: in vivo, Japanese bulrush (Schoenoplectus juncoides); settings: AAH 320 g/ha; application during weed generation, submerged conditions
Procedure, shortened: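 Herbicide emulsion, diluted with water to the chosen amount, is applied onto 4 cm floodwater over alluvial soil where the weeds were co-sown and raised at 25–30° C. Application timing: 1–2 leaves. Assessment: three weeks afterwards.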

Chinese sprangletop = assay: Test Example 3: herbicidal effect by foliage application, Wagner pot (Table 18, symbol D); type: in vivo, chinese sprangletop (Leptochloa chinensis); settings: for herbicidal effect on D: Chinese sprangletop: amount of applied herbicide 320 g/ha
Procedure, shortened: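 Plants were sown in alluvial soil held under 0.1–0.5 cm standing water and grown 14 days in a greenhouse at 25–30 °C. An emulsifiable formulation, water-diluted to the set dose, was then sprayed onto the foliage, and effects were scored three weeks later using previously defined criteria.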

green foxtail [1] = assay: Test Example 4: herbicidal effect by soil treatment (Table 19, symbol G); type: in vivo, green foxtail (Setaria viridis); settings: amount of applied herbicide 320 g/ha
Procedure, shortened: (§1)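 Applied as a water-diluted emulsion, the compound was sprayed onto soil covering newly sown seeds. Evaluation came three weeks after application, in a greenhouse held at 25° C. to 30° C.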

barnyard grass = assay: Test Example 4: herbicidal effect by soil treatment (Table 19, symbol H); type: in vivo, barnyard grass (Echinochloa crus-galli); settings: amount of applied herbicide 320 g/ha
Procedure, shortened: as §1

wild oat [2] = assay: Test Example 4: herbicidal effect by soil treatment (Table 19, symbol I); type: in vivo, wild oat (Avena fatua); settings: amount of applied herbicide 320 g/ha
Procedure, shortened: as §1

Italian ryegrass = assay: Test Example 4: herbicidal effect by soil treatment (Table 19, symbol K); type: in vivo, Italian ryegrass (Lolium multiflorum); settings: amount of applied herbicide 320 g/ha
Procedure, shortened: as §1

windgrass [3] = assay: Test Example 4: herbicidal effect by soil treatment (Table 19, symbol L); type: in vivo, windgrass (Apera spica-venti); settings: amount of applied herbicide 320 g/ha
Procedure, shortened: as §1

lambsquarters [4] = assay: Test Example 4: herbicidal effect by soil treatment (Table 19, symbol O); type: in vivo, lambsquarters (Chenopodium album); settings: amount of applied herbicide 320 g/ha
Procedure, shortened: as §1

chickweed = assay: Test Example 4: herbicidal effect by soil treatment (Table 19, symbol P); type: in vivo, common chickweed (Stellaria media); settings: amount of applied herbicide 320 g/ha
Procedure, shortened: as §1

green foxtail [5] = assay: Test Example 5: herbicidal effect by foliage application, plastic box (Table 20, symbol G); type: in vivo, green foxtail (Setaria viridis); settings: foliage application; for G: green foxtail, herbicidal effect (criteria 0-5): AAH 320 g/ha, evaluated three weeks after application; for G: green foxtail, herbicidal effect grade: 320 g/ha, three weeks after application
Procedure, shortened: (§2)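 Sow seeds spot-wise in sterilized diluvial soil; cover with ~1.5 cm soil. Grow 14 days in greenhouse, 25° C. to 30° C. Spray foliage with emulsion diluted to predetermined amount. Rate effect after 3 weeks.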

wild oat [6] = assay: Test Example 5: herbicidal effect by foliage application, plastic box (Table 20, symbol I); type: in vivo, wild oat (Avena fatua); settings: foliage application; for I: wild oat, herbicidal effect (criteria 0-5): AAH 320 g/ha, evaluated three weeks after application; for I: wild oat, herbicidal effect grade: 320 g/ha, three weeks after application
Procedure, shortened: as §2

windgrass [7] = assay: Test Example 5: herbicidal effect by foliage application, plastic box (Table 20, symbol L); type: in vivo, windgrass (Apera spica-venti); settings: foliage application; for L: windgrass, herbicidal effect (criteria 0-5): AAH 320 g/ha, evaluated three weeks after application
Procedure, shortened: as §2

velvetleaf = assay: Test Example 5: herbicidal effect by foliage application, plastic box (Table 20, symbol M); type: in vivo, velvetleaf (Abutilon theophrasti); settings: foliage application; for M: velvetleaf, herbicidal effect (criteria 0-5): AAH 320 g/ha, evaluated three weeks after application; for M: velvetleaf, herbicidal effect grade: 320 g/ha, three weeks after application
Procedure, shortened: as §2

redroot pigweed = assay: Test Example 5: herbicidal effect by foliage application, plastic box (Table 20, symbol N); type: in vivo, redroot pigweed (Amaranthus retroflexus); settings: foliage application; for N: redroot pigweed, herbicidal effect (criteria 0-5): AAH 320 g/ha, evaluated three weeks after application; for N: redroot pigweed, herbicidal effect grade: 320 g/ha, three weeks after application
Procedure, shortened: as §2

lambsquarters [8] = assay: Test Example 5: herbicidal effect by foliage application, plastic box (Table 20, symbol O); type: in vivo, lambsquarters (Chenopodium album); settings: foliage application; for O: lambsquarters, herbicidal effect (criteria 0-5): AAH 320 g/ha, evaluated three weeks after application; for O: lambsquarters, herbicidal effect grade: 320 g/ha, three weeks after application
Procedure, shortened: as §2

persian speedwell = assay: Test Example 5: herbicidal effect by foliage application, plastic box (Table 20, symbol R); type: in vivo, Persian speedwell (Veronica persica); settings: foliage application; for R: persian speedwell, herbicidal effect (criteria 0-5): AAH 320 g/ha, evaluated three weeks after application; for R: persian speedwell, herbicidal effect grade: 320 g/ha, three weeks after application
Procedure, shortened: as §2

CCCC(=O)Oc1c(C)nn(C)c(=O)c1-c1c(-c2ccc(Cl)s2)sc2ccc(F)cc12 [2-391]
Herbicidal effect, A: late watergrass (late watergrass): 5 (Herbicidal rate of 90% or more (almost completely withered)) | herbicidal effect rating, B: Japanese bulrush (Japanese bulrush): 4 (Herbicidal rate of 70% or more and less than 90%) | herbicidal effect on D: Chinese sprangletop (Chinese sprangletop): 4 (Herbicidal rate of 70% or more and less than 90%) | herbicidal effect, G: green foxtail (green foxtail [1]): 4 (Herbicidal rate of 70% or more and less than 90%) | herbicidal effect, H: barnyard grass (barnyard grass): 4 (Herbicidal rate of 70% or more and less than 90%) | herbicidal effect, I: wild oat (wild oat [2]): 0 (Herbicidal rate of 5% or less (almost no effect)) | herbicidal effect, K: Italian ryegrass (Italian ryegrass): 5 (Herbicidal rate of 90% or more (almost completely withered)) | herbicidal effect, L: windgrass (windgrass [3]): 3 (Herbicidal rate of 40% or more and less than 70%) | herbicidal effect, O: lambsquarters (lambsquarters [4]): 4 (Herbicidal rate of 70% or more and less than 90%) | herbicidal effect, P: chickweed (chickweed): 4 (Herbicidal rate of 70% or more and less than 90%) | G: green foxtail, herbicidal effect (criteria 0-5) (green foxtail [5]): 5 (Herbicidal rate of 90% or more (almost completely withered)) | I: wild oat, herbicidal effect (criteria 0-5) (wild oat [6]): 3 (Herbicidal rate of 40% or more and less than 70%) | L: windgrass, herbicidal effect (criteria 0-5) (windgrass [7]): 4 (Herbicidal rate of 70% or more and less than 90%) | M: velvetleaf, herbicidal effect (criteria 0-5) (velvetleaf): 5 (Herbicidal rate of 90% or more (almost completely withered)) | N: redroot pigweed, herbicidal effect (criteria 0-5) (redroot pigweed): 5 (Herbicidal rate of 90% or more (almost completely withered)) | O: lambsquarters, herbicidal effect (criteria 0-5) (lambsquarters [8]): 4 (Herbicidal rate of 70% or more and less than 90%) | R: persian speedwell, herbicidal effect (criteria 0-5) (persian speedwell): 5 (Herbicidal rate of 90% or more (almost completely withered))

Cc1nn(C)c(=O)c(-c2c(-c3ccc4c(c3)OC(F)(F)O4)sc3ccc(F)cc23)c1O [2-392]
Herbicidal effect, A: late watergrass (late watergrass): 3 (Herbicidal rate of 40% or more and less than 70%) | herbicidal effect rating, B: Japanese bulrush (Japanese bulrush): 0 (Herbicidal rate of 5% or less (almost no effect)) | herbicidal effect on D: Chinese sprangletop (Chinese sprangletop): 4 (Herbicidal rate of 70% or more and less than 90%) | herbicidal effect, G: green foxtail (green foxtail [1]): 1 (Herbicidal rate of 5% or more and less than 20%) | herbicidal effect, H: barnyard grass (barnyard grass): 2 (Herbicidal rate of 20% or more and less than 40%) | herbicidal effect, I: wild oat (wild oat [2]): 0 (Herbicidal rate of 5% or less (almost no effect)) | herbicidal effect, K: Italian ryegrass (Italian ryegrass): 3 (Herbicidal rate of 40% or more and less than 70%) | herbicidal effect, L: windgrass (windgrass [3]): 1 (Herbicidal rate of 5% or more and less than 20%) | herbicidal effect, O: lambsquarters (lambsquarters [4]): 3 (Herbicidal rate of 40% or more and less than 70%) | herbicidal effect, P: chickweed (chickweed): 5 (Herbicidal rate of 90% or more (almost completely withered)) | G: green foxtail, herbicidal effect (criteria 0-5) (green foxtail [5]): 3 (Herbicidal rate of 40% or more and less than 70%) | I: wild oat, herbicidal effect (criteria 0-5) (wild oat [6]): 4 (Herbicidal rate of 70% or more and less than 90%) | L: windgrass, herbicidal effect (criteria 0-5) (windgrass [7]): 0 (Herbicidal rate of 5% or less (almost no effect)) | M: velvetleaf, herbicidal effect (criteria 0-5) (velvetleaf): 5 (Herbicidal rate of 90% or more (almost completely withered)) | N: redroot pigweed, herbicidal effect (criteria 0-5) (redroot pigweed): 4 (Herbicidal rate of 70% or more and less than 90%) | O: lambsquarters, herbicidal effect (criteria 0-5) (lambsquarters [8]): 5 (Herbicidal rate of 90% or more (almost completely withered)) | R: persian speedwell, herbicidal effect (criteria 0-5) (persian speedwell): 5 (Herbicidal rate of 90% or more (almost completely withered))

CCCC(=O)Oc1c(C)nn(C)c(=O)c1-c1c(-c2ccc(OC)cc2)sc2cc(OCC)ccc12 [3-092]
Herbicidal effect, A: late watergrass (late watergrass): 0 (Herbicidal rate of 5% or less (almost no effect)) | herbicidal effect rating, B: Japanese bulrush (Japanese bulrush): 1 (Herbicidal rate of 5% or more and less than 20%) | G: green foxtail, herbicidal effect grade (green foxtail [1]): 0 (Herbicidal rate of 5% or less (almost no effect)) | H: barnyard grass, herbicidal effect grade (barnyard grass): 0 (Herbicidal rate of 5% or less (almost no effect)) | I: wild oat, herbicidal effect grade (wild oat [2]): 0 (Herbicidal rate of 5% or less (almost no effect)) | K: Italian ryegrass, herbicidal effect grade (Italian ryegrass): 0 (Herbicidal rate of 5% or less (almost no effect)) | L: windgrass, herbicidal effect grade (windgrass [3]): 0 (Herbicidal rate of 5% or less (almost no effect)) | O: lambsquarters, herbicidal effect grade (lambsquarters [4]): 4 (Herbicidal rate of 70% or more and less than 90%) | P: chickweed, herbicidal effect grade (chickweed): 5 (Herbicidal rate of 90% or more (almost completely withered)) | G: green foxtail, herbicidal effect grade (green foxtail [5]): 0 (Herbicidal rate of 5% or less (almost no effect)) | I: wild oat, herbicidal effect grade (wild oat [6]): 0 (Herbicidal rate of 5% or less (almost no effect)) | L: windgrass, herbicidal effect grade (windgrass [7]; 320 g/ha, three weeks after application): 0 (Herbicidal rate of 5% or less (almost no effect)) | M: velvetleaf, herbicidal effect grade (velvetleaf): 5 (Herbicidal rate of 90% or more (almost completely withered)) | N: redroot pigweed, herbicidal effect grade (redroot pigweed): 5 (Herbicidal rate of 90% or more (almost completely withered)) | O: lambsquarters, herbicidal effect grade (lambsquarters [8]): 4 (Herbicidal rate of 70% or more and less than 90%) | R: persian speedwell, herbicidal effect grade (persian speedwell): 5 (Herbicidal rate of 90% or more (almost completely withered))

CCCC(=O)Oc1c(C)nn(C)c(=O)c1-c1c(-c2ccc(C(F)(F)F)cc2)sc2cc(F)ccc12 [3-140]
Herbicidal effect, A: late watergrass (late watergrass): 5 (Herbicidal rate of 90% or more (almost completely withered)) | herbicidal effect rating, B: Japanese bulrush (Japanese bulrush): 3 (Herbicidal rate of 40% or more and less than 70%) | herbicidal effect on Chinese sprangletop (D) (Chinese sprangletop; 320 g/ha): 4 (Herbicidal rate of 70% or more and less than 90%) | Herbicidal effect by soil treatment, G: green foxtail (green foxtail [1]): 0 (Herbicidal rate of 5% or less (almost no effect)) | Herbicidal effect by soil treatment, H: barnyard grass (barnyard grass): 0 (Herbicidal rate of 5% or less (almost no effect)) | Herbicidal effect by soil treatment, I: wild oat (wild oat [2]): 0 (Herbicidal rate of 5% or less (almost no effect)) | Herbicidal effect by soil treatment, K: Italian ryegrass (Italian ryegrass): 0 (Herbicidal rate of 5% or less (almost no effect)) | Herbicidal effect by soil treatment, L: windgrass (windgrass [3]): 0 (Herbicidal rate of 5% or less (almost no effect)) | Herbicidal effect by soil treatment, O: lambsquarters (lambsquarters [4]): 3 (Herbicidal rate of 40% or more and less than 70%) | Herbicidal effect by soil treatment, P: chickweed (chickweed): 0 (Herbicidal rate of 5% or less (almost no effect)) | G: green foxtail, herbicidal effect grade (green foxtail [5]): 2 (Herbicidal rate of 20% or more and less than 40%) | I: wild oat, herbicidal effect grade (wild oat [6]): 2 (Herbicidal rate of 20% or more and less than 40%) | M: velvetleaf, herbicidal effect grade (velvetleaf): 5 (Herbicidal rate of 90% or more (almost completely withered)) | N: redroot pigweed, herbicidal effect grade (redroot pigweed): 5 (Herbicidal rate of 90% or more (almost completely withered)) | O: lambsquarters, herbicidal effect grade (lambsquarters [8]): 4 (Herbicidal rate of 70% or more and less than 90%) | R: persian speedwell, herbicidal effect grade (persian speedwell): 5 (Herbicidal rate of 90% or more (almost completely withered))
